According to the supplement of paper PMC8617591:

Columns and labels:
[1] = test system: Mycobacterium tuberculosis Erdman (autoluminescent); assay: total FIC50 (Loewe) at 50% inhibition, three-drug combination (log2); higher = more antagonistic
Method: (§1)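 DiaMOND equipotent three-drug combination dose responses (10 doses, 1.5- or 2-fold spacing, centred on IC90) against autoluminescent M. tuberculosis Erdman in 8 in vitro models. Read-out is OD600, or luminescence for the intracellular and dormancy models, normalised to untreated wells. Hill-fit Einf, AUC25 and GRinf are potency metrics; FIC50 and FIC90 are total Loewe fractional inhibitory concentrations as log2 (negative = synergy).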

[2] = test system: Mycobacterium tuberculosis Erdman (autoluminescent); assay: total FIC90 (Loewe) at 90% inhibition, three-drug combination (log2); higher = more antagonistic
Method: as §1

[3] = test system: Mycobacterium tuberculosis Erdman (autoluminescent); assay: Einf, fitted maximum growth inhibition of three-drug combination (fraction); higher = stronger maximal inhibition
Method: as §1

[4] = test system: Mycobacterium tuberculosis Erdman (autoluminescent); assay: AUC25, normalised area under dose response up to IC25 (three-drug combination) (fraction (0-1)); higher = more potent at low dose
Method: as §1

[5] = test system: Mycobacterium tuberculosis Erdman (autoluminescent); assay: GRinf, maximum normalised growth rate inhibition (three-drug combination) (unitless (-1 to 1)); higher = less effect (negative = killing)
Method: as §1

COc1nc2ccc(Br)cc2cc1[C@@H](c1ccccc1)[C@@](O)(CCN(C)C)c1cccc2ccccc12 [bedaquiline] + CC(=O)NC[C@H]1CN(c2ccc(N3CCOCC3)c(F)c2)C(=O)O1 [linezolid] + NC(=O)c1cnccn1 [pyrazinamide]
Conditions | AUC25, [4] | Einf, [3] | GRinf, [5] | total FIC50, [1] | total FIC90, [2]
in vitro model: acidic pH 5.7, time point: constant (~7 days, model-specific) | 0.076 | 0.806 | -0.494 | 0.125 | –
in vitro model: acidic pH 5.7, time point: terminal (~4-5 doublings, model-specific) | 0.0793 | 0.981 | -0.392 | 0.681 | 0.133
in vitro model: intracellular J774, time point: constant = terminal | – | 0.928 | -0.132 | – | 0.532

Conditions | AUC25, [4] | Einf, [3] | GRinf, [5] | total FIC50, [1] | total FIC90, [2]
in vitro model: butyrate, time point: constant (~7 days, model-specific) | 0.101 | 0.947 | -0.127 | -0.0949 | 0.0532
in vitro model: butyrate, time point: terminal (~4-5 doublings, model-specific) | 0.0821 | 0.975 | -0.116 | -0.166 | 0.0226
in vitro model: cholesterol 0.05 mM, time point: constant (~7 days, model-specific) | 0.142 | 0.767 | -0.355 | – | –
in vitro model: cholesterol 0.05 mM, time point: terminal (~4-5 doublings, model-specific) | 0.141 | 0.969 | -0.491 | 0.0813 | –
in vitro model: cholesterol-high 0.2 mM, time point: constant (~7 days, model-specific) | 0.109 | 0.967 | -0.577 | 0.197 | –
in vitro model: cholesterol-high 0.2 mM, time point: terminal (~4-5 doublings, model-specific) | 0.105 | 1 | -0.793 | 0.121 | 0.311
in vitro model: dormancy (butyrate + nitrate, low O2), time point: constant (~7 days, model-specific) | 0.0774 | 0.92 | 0.268 | -0.772 | -0.755
in vitro model: dormancy (butyrate + nitrate, low O2), time point: terminal (~4-5 doublings, model-specific) | 0.0469 | 0.989 | -0.0748 | -0.0476 | -0.67
in vitro model: standard 7H9 glycerol, time point: constant = terminal | 0.0828 | 0.934 | -0.00964 | 0.406 | –
in vitro model: valerate, time point: constant (~7 days, model-specific) | 0.0833 | 0.886 | -0.102 | 0.362 | –
in vitro model: valerate, time point: terminal (~4-5 doublings, model-specific) | 0.0634 | 0.942 | -0.069 | 0.455 | 0.406

COc1nc2ccc(Br)cc2cc1[C@@H](c1ccccc1)[C@@](O)(CCN(C)C)c1cccc2ccccc12 [bedaquiline] + CC(=O)NC[C@H]1CN(c2ccc(N3CCOCC3)c(F)c2)C(=O)O1 [linezolid] + O=[N+]([O-])c1cn2c(n1)OC[C@@H](OCc1ccc(OC(F)(F)F)cc1)C2 [pretomanid]
Conditions | AUC25, [4] | Einf, [3] | GRinf, [5] | total FIC50, [1] | total FIC90, [2]
in vitro model: acidic pH 5.7, time point: constant (~7 days, model-specific) | 0.118 | 0.937 | -0.508 | 0.414 | –
in vitro model: acidic pH 5.7, time point: terminal (~4-5 doublings, model-specific) | 0.0812 | 0.992 | -0.56 | 0.58 | 0.474
in vitro model: intracellular J774, time point: constant = terminal | – | 0.99 | -0.78 | – | 1.25

Conditions | AUC25, [4] | Einf, [3] | GRinf, [5] | total FIC50, [1] | total FIC90, [2]
in vitro model: butyrate, time point: constant (~7 days, model-specific) | 0.105 | 0.943 | -0.119 | 0.731 | 1.49
in vitro model: butyrate, time point: terminal (~4-5 doublings, model-specific) | 0.0754 | 0.97 | -0.0976 | 0.645 | 0.887
in vitro model: cholesterol 0.05 mM, time point: constant (~7 days, model-specific) | 0.136 | 0.738 | -0.284 | 0.169 | –
in vitro model: cholesterol 0.05 mM, time point: terminal (~4-5 doublings, model-specific) | 0.141 | 0.962 | -0.303 | 0.274 | 0.577
in vitro model: cholesterol-high 0.2 mM, time point: constant (~7 days, model-specific) | 0.112 | 0.948 | -0.376 | 0.197 | –
in vitro model: cholesterol-high 0.2 mM, time point: terminal (~4-5 doublings, model-specific) | 0.115 | 1 | -0.834 | -0.088 | 0.591
in vitro model: dormancy (butyrate + nitrate, low O2), time point: constant (~7 days, model-specific) | 0.0459 | 0.92 | 0.23 | -0.22 | -0.616
in vitro model: dormancy (butyrate + nitrate, low O2), time point: terminal (~4-5 doublings, model-specific) | 0.0294 | 0.988 | -0.115 | -0.261 | -1.1
in vitro model: standard 7H9 glycerol, time point: constant = terminal | 0.0809 | 0.955 | -0.108 | 0.296 | 0.191
in vitro model: valerate, time point: constant (~7 days, model-specific) | 0.139 | 0.929 | -0.172 | 0.447 | 1.63
in vitro model: valerate, time point: terminal (~4-5 doublings, model-specific) | 0.115 | 0.958 | -0.132 | 0.00392 | 1.32

COc1nc2ccc(Br)cc2cc1[C@@H](c1ccccc1)[C@@](O)(CCN(C)C)c1cccc2ccccc12 [bedaquiline] + CC(C)/N=c1\cc2n(-c3ccc(Cl)cc3)c3ccccc3nc-2cc1Nc1ccc(Cl)cc1 [clofazimine] + CC(=O)NC[C@H]1CN(c2ccc(N3CCOCC3)c(F)c2)C(=O)O1 [linezolid]
Conditions | AUC25, [4] | Einf, [3] | GRinf, [5] | total FIC50, [1] | total FIC90, [2]
in vitro model: acidic pH 5.7, time point: constant (~7 days, model-specific) | 0.0792 | 0.874 | -0.465 | 0.0418 | –
in vitro model: acidic pH 5.7, time point: terminal (~4-5 doublings, model-specific) | 0.0781 | 0.97 | -0.331 | 0.786 | 0.299
in vitro model: intracellular J774, time point: constant = terminal | – | 0.929 | -0.17 | – | 0.186

Conditions | AUC25, [4] | Einf, [3] | GRinf, [5] | total FIC50, [1] | total FIC90, [2]
in vitro model: butyrate, time point: constant (~7 days, model-specific) | 0.0701 | 0.947 | -0.105 | 0.0722 | -0.55
in vitro model: butyrate, time point: terminal (~4-5 doublings, model-specific) | 0.0486 | 0.977 | -0.115 | 0.112 | -0.466
in vitro model: cholesterol 0.05 mM, time point: constant (~7 days, model-specific) | 0.14 | 0.769 | -0.304 | -0.461 | –
in vitro model: cholesterol 0.05 mM, time point: terminal (~4-5 doublings, model-specific) | 0.137 | 0.951 | -0.374 | -0.129 | -0.783
in vitro model: cholesterol-high 0.2 mM, time point: constant (~7 days, model-specific) | 0.0852 | 0.944 | -0.281 | -0.437 | -0.594
in vitro model: cholesterol-high 0.2 mM, time point: terminal (~4-5 doublings, model-specific) | 0.0962 | 0.999 | -0.488 | -0.195 | -0.484
in vitro model: dormancy (butyrate + nitrate, low O2), time point: constant (~7 days, model-specific) | 0.0703 | 0.913 | 0.219 | -0.36 | -0.911
in vitro model: dormancy (butyrate + nitrate, low O2), time point: terminal (~4-5 doublings, model-specific) | 0.0497 | 0.99 | -0.161 | -0.24 | -0.848
in vitro model: standard 7H9 glycerol, time point: constant = terminal | 0.0911 | 0.962 | -0.0979 | -0.27 | -0.871
in vitro model: valerate, time point: constant (~7 days, model-specific) | 0.134 | 0.931 | -0.127 | 0.0537 | -0.00887
in vitro model: valerate, time point: terminal (~4-5 doublings, model-specific) | 0.0869 | 0.944 | -0.0541 | 0.263 | 1.19
